Test results from the supplement of paper PMC4862054.
Several values for one entry are separate records, joined by “and”; a condition that tells them apart may be missing. Identical values can stand only once.

Each compound was assayed on Hs578T (assay: normalised viability (% of control), CellTiter-Blue; higher = more viable cells (about 100 = DMSO control)). Settings: 10 nM; incubation time: 72 h.
How it was run: (§1)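 Vehicle (100) and a positive kill control (0) anchored the normalisation of each plate, and Z'-factor was used for quality control. Breast cancer cell lines in 20 µl suspension were incubated 72 h over compound in 5 µl medium in 384-well plates, followed by CellTiter-Blue at 560/590 nm. The value is normalised viability at a single listed concentration of the series.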

SMILES	normalised viability [%]
CC[C@H](CO)Nc1nc(NCc2ccccc2)c2ncn(C(C)C)c2n1 [Roscovitine]	111

Same assay, conditions: 100 nM; incubation time: 72 h

SMILES	normalised viability [%]
CCNC(=O)c1noc(-c2cc(C(C)C)c(O)cc2O)c1-c1ccc(CN2CCOCC2)cc1 [NVP-AUY922]	44.1

Same assay, conditions: 1000 nM; incubation time: 72 h

SMILES	normalised viability
COc1c2occc2cc2ccc(=O)oc12 [Methoxsalen]	138%
CO[C@@H]1[C@H](N(C)C(=O)c2ccccc2)C[C@H]2O[C@]1(C)n1c3ccccc3c3c4c(c5c6ccccc6n2c5c31)C(=O)NC4 [Midostaurin]	31%
CO[C@@]12[C@H](COC(N)=O)C3=C(C(=O)C(C)=C(N)C3=O)N1C[C@@H]1N[C@@H]12 [Mitomycin C]	98.9%
CCNC(=O)c1noc(-c2cc(C(C)C)c(O)cc2O)c1-c1ccc(CN2CCOCC2)cc1 [NVP-AUY922]	37.2%
CC1(C)CCC(c2ccc(Cl)cc2)=C(CN2CCN(c3ccc(C(=O)NS(=O)(=O)c4ccc(N[C@H](CCN5CCOCC5)CSc5ccccc5)c(S(=O)(=O)C(F)(F)F)c4)cc3)CC2)C1 [Navitoclax]	92.2%
Cc1cn(-c2cc(NC(=O)c3ccc(C)c(Nc4nccc(-c5cccnc5)n4)c3)cc(C(F)(F)F)c2)cn1 [Nilotinib]	89% and 84.7%
C=CCN(/C=C1/C(=O)O[C@H](COC)[C@@]2(C)C1=C(O)C(=O)C1=C2[C@H](OC(C)=O)C[C@]2(C)C(=O)CC[C@@H]12)CC=C [PX-866]	89.4%
CC[C@H](CO)Nc1nc(NCc2ccccc2)c2ncn(C(C)C)c2n1 [Roscovitine]	91.4%

Same assay, conditions: 10000 nM; incubation time: 72 h

SMILES	normalised viability
COc1c2occc2cc2ccc(=O)oc12 [Methoxsalen]	110%
CO[C@@H]1[C@H](N(C)C(=O)c2ccccc2)C[C@H]2O[C@]1(C)n1c3ccccc3c3c4c(c5c6ccccc6n2c5c31)C(=O)NC4 [Midostaurin]	15.6%
CO[C@@]12[C@H](COC(N)=O)C3=C(C(=O)C(C)=C(N)C3=O)N1C[C@@H]1N[C@@H]12 [Mitomycin C]	5.32%
CC1(C)CCC(c2ccc(Cl)cc2)=C(CN2CCN(c3ccc(C(=O)NS(=O)(=O)c4ccc(N[C@H](CCN5CCOCC5)CSc5ccccc5)c(S(=O)(=O)C(F)(F)F)c4)cc3)CC2)C1 [Navitoclax]	88.8%
Cc1cn(-c2cc(NC(=O)c3ccc(C)c(Nc4nccc(-c5cccnc5)n4)c3)cc(C(F)(F)F)c2)cn1 [Nilotinib]	106% and 91%
C=CCN(/C=C1/C(=O)O[C@H](COC)[C@@]2(C)C1=C(O)C(=O)C1=C2[C@H](OC(C)=O)C[C@]2(C)C(=O)CC[C@@H]12)CC=C [PX-866]	40.1%
CC[C@H](CO)Nc1nc(NCc2ccccc2)c2ncn(C(C)C)c2n1 [Roscovitine]	42.6%

These compounds were tested on CAL-120 in the same assay as above. Settings: 1 nM; incubation time: 72 h.
How it was run: as §1

SMILES	normalised viability [%]
CCNC(=O)c1noc(-c2cc(C(C)C)c(O)cc2O)c1-c1ccc(CN2CCOCC2)cc1 [NVP-AUY922]	101

Same assay, conditions: 10 nM; incubation time: 72 h

SMILES	normalised viability
COc1c2occc2cc2ccc(=O)oc12 [Methoxsalen]	99.1%
CO[C@@H]1[C@H](N(C)C(=O)c2ccccc2)C[C@H]2O[C@]1(C)n1c3ccccc3c3c4c(c5c6ccccc6n2c5c31)C(=O)NC4 [Midostaurin]	126%
CO[C@@]12[C@H](COC(N)=O)C3=C(C(=O)C(C)=C(N)C3=O)N1C[C@@H]1N[C@@H]12 [Mitomycin C]	92.4%
CC1(C)CCC(c2ccc(Cl)cc2)=C(CN2CCN(c3ccc(C(=O)NS(=O)(=O)c4ccc(N[C@H](CCN5CCOCC5)CSc5ccccc5)c(S(=O)(=O)C(F)(F)F)c4)cc3)CC2)C1 [Navitoclax]	69.9%
Cc1cn(-c2cc(NC(=O)c3ccc(C)c(Nc4nccc(-c5cccnc5)n4)c3)cc(C(F)(F)F)c2)cn1 [Nilotinib]	78% and 85.4%
C=CCN(/C=C1/C(=O)O[C@H](COC)[C@@]2(C)C1=C(O)C(=O)C1=C2[C@H](OC(C)=O)C[C@]2(C)C(=O)CC[C@@H]12)CC=C [PX-866]	94.4%
CC[C@H](CO)Nc1nc(NCc2ccccc2)c2ncn(C(C)C)c2n1 [Roscovitine]	82.7%

Same assay, conditions: 100 nM; incubation time: 72 h

SMILES	normalised viability [%]
CCNC(=O)c1noc(-c2cc(C(C)C)c(O)cc2O)c1-c1ccc(CN2CCOCC2)cc1 [NVP-AUY922]	18.9

Same assay, conditions: 1000 nM; incubation time: 72 h

SMILES	normalised viability
COc1c2occc2cc2ccc(=O)oc12 [Methoxsalen]	101%
CO[C@@H]1[C@H](N(C)C(=O)c2ccccc2)C[C@H]2O[C@]1(C)n1c3ccccc3c3c4c(c5c6ccccc6n2c5c31)C(=O)NC4 [Midostaurin]	55.4%
CO[C@@]12[C@H](COC(N)=O)C3=C(C(=O)C(C)=C(N)C3=O)N1C[C@@H]1N[C@@H]12 [Mitomycin C]	91.5%
CCNC(=O)c1noc(-c2cc(C(C)C)c(O)cc2O)c1-c1ccc(CN2CCOCC2)cc1 [NVP-AUY922]	17.1%
CC1(C)CCC(c2ccc(Cl)cc2)=C(CN2CCN(c3ccc(C(=O)NS(=O)(=O)c4ccc(N[C@H](CCN5CCOCC5)CSc5ccccc5)c(S(=O)(=O)C(F)(F)F)c4)cc3)CC2)C1 [Navitoclax]	64.7%
Cc1cn(-c2cc(NC(=O)c3ccc(C)c(Nc4nccc(-c5cccnc5)n4)c3)cc(C(F)(F)F)c2)cn1 [Nilotinib]	82.5% and 88%
C=CCN(/C=C1/C(=O)O[C@H](COC)[C@@]2(C)C1=C(O)C(=O)C1=C2[C@H](OC(C)=O)C[C@]2(C)C(=O)CC[C@@H]12)CC=C [PX-866]	85.9%
CC[C@H](CO)Nc1nc(NCc2ccccc2)c2ncn(C(C)C)c2n1 [Roscovitine]	86.1%

Same assay, conditions: 10000 nM; incubation time: 72 h

SMILES	normalised viability
COc1c2occc2cc2ccc(=O)oc12 [Methoxsalen]	104%
CO[C@@H]1[C@H](N(C)C(=O)c2ccccc2)C[C@H]2O[C@]1(C)n1c3ccccc3c3c4c(c5c6ccccc6n2c5c31)C(=O)NC4 [Midostaurin]	44.9%
CO[C@@]12[C@H](COC(N)=O)C3=C(C(=O)C(C)=C(N)C3=O)N1C[C@@H]1N[C@@H]12 [Mitomycin C]	40.4%
CC1(C)CCC(c2ccc(Cl)cc2)=C(CN2CCN(c3ccc(C(=O)NS(=O)(=O)c4ccc(N[C@H](CCN5CCOCC5)CSc5ccccc5)c(S(=O)(=O)C(F)(F)F)c4)cc3)CC2)C1 [Navitoclax]	30.5%
Cc1cn(-c2cc(NC(=O)c3ccc(C)c(Nc4nccc(-c5cccnc5)n4)c3)cc(C(F)(F)F)c2)cn1 [Nilotinib]	90.2% and 92.4%
C=CCN(/C=C1/C(=O)O[C@H](COC)[C@@]2(C)C1=C(O)C(=O)C1=C2[C@H](OC(C)=O)C[C@]2(C)C(=O)CC[C@@H]12)CC=C [PX-866]	71.3%
CC[C@H](CO)Nc1nc(NCc2ccccc2)c2ncn(C(C)C)c2n1 [Roscovitine]	76.3%
